Source: article PMC7826790, “Glucose 6-Phosphate Dehydrogenase from Trypanosomes: Selectivity for Steroids and Chemical Validation in Bloodstream Trypanosoma brucei” (Molecules, 2021)
Where two headings read alike, the source gives them in different places.

Experiments:
[1] = test system: Bloodstream T. b. brucei (strain 427- cell line 514-1313); set-up: method as in PMID 28684718; conditions: read-out: EC50 T. brucei Bloodstream Form, cited from earlier work
[2] = biological target: T1, T. cruzi G6PDH (Trypanosoma cruzi, UniProt Q4E0B2); conditions: read-out: IC50 T. cruzi G6PDH, cited from earlier work
T1 sequence (Q4E0B2 entry or part of it): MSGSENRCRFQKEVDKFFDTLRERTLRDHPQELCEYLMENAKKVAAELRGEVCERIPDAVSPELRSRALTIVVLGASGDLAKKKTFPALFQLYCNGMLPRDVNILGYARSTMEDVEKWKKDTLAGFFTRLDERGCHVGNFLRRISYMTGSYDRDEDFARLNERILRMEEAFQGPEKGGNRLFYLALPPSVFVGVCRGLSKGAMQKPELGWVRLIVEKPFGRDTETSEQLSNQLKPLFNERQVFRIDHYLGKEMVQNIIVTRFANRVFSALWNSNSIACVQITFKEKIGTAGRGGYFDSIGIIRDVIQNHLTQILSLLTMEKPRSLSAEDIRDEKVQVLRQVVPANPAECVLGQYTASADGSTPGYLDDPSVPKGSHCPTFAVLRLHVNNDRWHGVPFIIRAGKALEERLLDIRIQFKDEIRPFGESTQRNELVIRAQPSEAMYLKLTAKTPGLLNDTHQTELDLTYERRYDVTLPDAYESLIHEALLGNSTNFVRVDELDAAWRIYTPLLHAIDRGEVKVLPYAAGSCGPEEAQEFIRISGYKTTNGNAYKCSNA

[3] = test system: L. mexicana G6PDH; conditions: cited from earlier work
[4] = biological target: T2, human G6PDH (Homo sapiens, UniProt P11413); set-up: method as in PMID 22506561; conditions: read-out: IC50 H. sapiens G6PDH; cited from earlier work
T2 construct: hexa-histidine (His6) (N); made in house; host or cells: E. coli Tuner (DE3), pHis vector
T2 sequence (P11413 whole entry): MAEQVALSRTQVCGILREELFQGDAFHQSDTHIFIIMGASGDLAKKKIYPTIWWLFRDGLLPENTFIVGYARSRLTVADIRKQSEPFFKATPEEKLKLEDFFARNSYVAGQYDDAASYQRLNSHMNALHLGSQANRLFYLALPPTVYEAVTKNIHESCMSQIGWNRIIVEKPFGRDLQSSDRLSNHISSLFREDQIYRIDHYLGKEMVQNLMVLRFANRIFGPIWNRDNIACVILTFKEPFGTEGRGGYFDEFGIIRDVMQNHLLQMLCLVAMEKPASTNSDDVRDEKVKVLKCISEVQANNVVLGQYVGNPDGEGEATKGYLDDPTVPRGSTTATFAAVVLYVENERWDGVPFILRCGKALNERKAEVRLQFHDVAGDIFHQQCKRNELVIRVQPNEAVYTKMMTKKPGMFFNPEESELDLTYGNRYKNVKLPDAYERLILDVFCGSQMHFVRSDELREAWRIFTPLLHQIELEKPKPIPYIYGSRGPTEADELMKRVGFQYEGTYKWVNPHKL

[5] = test system: Hek293T; conditions: read-out: CC50 against Hek293T; printed in the macrophage column; cited from earlier work
[6] = test system: Murine macrophages (cell line J774); assay: Cytotoxicity to murine macrophages (WST-1); type: cell-based; conditions: 24 h, read-out: CC50 Murine Macrophage (Cell Line J774)
Description: (§3) Cell viability was assessed using the WST-1 reagent.
(§4) EC50 values were obtained from the corresponding concentration/response plots fitted to a sigmoidal Hill equation or extrapolated from nonlinear fitting equations.

[7] = Cytotoxicity to murine macrophages (WST-1); type: cell-based; conditions: mouse, J774 murine macrophage cells, read-out: CC50 Murine Macrophage (Cell Line J774)
Description: as §3, §4

[8] = biological target: T2, human G6PDH; assay: G6PDH enzymatic assay, recombinant human G6PDH (NADPH formation at 340 nm); type: biochemical, H. sapiens; conditions: for inhibition of human G6PDH at highest concentration: 100 µM; for inhibition at 100 µM: read-out: % inhibition of human G6PDH
Description: (§1) E. coli Tuner (DE3) cells were transformed with the pET28a (+) and pHis constructs encoding for N-terminally hexa histidine-tagged TcG6PDHL and HsG6PDH, respectively, and grown overnight in LB medium with […] and […], respectively. […] Thereafter, the cultures were incubated for 20 h at 25 °C and 170 rpm. Cells were harvested by centrifugation (5000× g, 10 min, 4 °C), resuspended in buffer A (50 mM Tris, pH of 8.0, 500 mM NaCl and 5 mM MgCl2) containing a complete™ Protease Inhibitor Cocktail prepared as indicated by the provider (Sigma-Aldrich-Merck, Germany); afterwards, we added 1 mg/mL of lysozyme and incubated the cells for 1 h at 4 °C. Cells were further lysed by three cycles of sonication (45% amplitude, 2 s pulse on/off, for 1 min) using a macrotip in a Branson Digital Sonifier 450 (Marshall Scientific, Hampton, VA, USA) and debris was removed by centrifugation at 27,000× g for 45 min at 4 °C and filtrated through a 0.45 µm filter (Millipore-Merck, Darmstadt, Germany). […] Protein concentration was determined from the absorbance values at 280 nm and the corresponding theoretical absorbance coefficients.
(§2) G6PDH activity was determined at room temperature (RT) by monitoring NADPH (ε340 = 6220 M^−1 cm^−1) formation at 340 nm. All reactions were performed in 50 mM Tris (pH 7.5) with 5 mM MgCl2 and 250 mM NaCl in a final volume of 500 µL. The reactions were started by the addition of 700 µM NADP^+ and 6 mM G6P for TcG6PDH or by the addition of 250 µM NADP^+ and 1 mM G6P for the human enzyme. For each enzyme, a control reaction in the presence of 1% (v/v) DMSO was run. Stock and working solutions of compounds were prepared in 100% (v/v) DMSO. […] The initial velocities were calculated from the first 45 s of the reaction and normalized to the corresponding enzyme control. All measurements were performed at least in triplicate using a Cary 50 Bio spectrophotometer (Agilent Technologies, Santa Clara, CA, USA) at RT. The initial rates were determined with the Origin Pro 8.0 software (OriginLab Corporation, Northampton, MA, USA), and the IC50 values were calculated by nonlinear regression using the GraphPad Prism 5.0 software (GraphPad Inc., San Diego, CA, USA).

[9] = biological target: T1, T. cruzi G6PDH; assay: biochemical; type: biochemical
Description: as §1, with “°C.” for “°C. Cells were further lysed by three cycles of sonication (45% amplitude, 2 s pulse on/off, for 1 min) using a macrotip in a Branson Digital Sonifier 450 (Marshall Scientific, Hampton, VA, USA) and debris was removed by centrifugation at 27,000× g for 45 min at 4 °C and filtrated through a 0.45 µm filter (Millipore-Merck, Darmstadt, Germany).”
as §2, with “All” for “G6PDH activity was determined at room temperature (RT) by monitoring NADPH (ε340 = 6220 M^−1 cm^−1) formation at 340 nm. All”, “The reactions were started by the addition of 700 µM NADP^+ and 6 mM G6P for TcG6PDH or by the addition of 250 µM NADP^+ and 1 mM G6P for the human enzyme.” left out

[10] = test system: Bloodstream T. b. brucei (strain 427- cell line 514-1313); assay: Cell viability of bloodstream T. b. brucei (bioluminescent assay); type: cell-based, Trypanosoma brucei brucei; conditions: for EC50: 24 h incubation, read-out: EC50 T. brucei Bloodstream Form; for Selectivity Index (CC50 for murine macrophages/EC50 for T. brucei): DHEA: Hek293T CC50, Conessine: L6 CC50
Description: Parasite viability was performed as described in [72]. […] Thereafter, 200 µL from each well were transferred to a 96-well black plate and incubated with 20 µL of a solution containing: 1.5 mg/mL luciferin in PBS glucose 1% (w/v) and Triton X-100.

[11] = test system: T. cruzi epimastigotes (strain DM28); assay: Cell viability of T. cruzi epimastigotes (propidium iodide, flow cytometry); conditions: 72 h; for cytotoxicity at 50 µM: read-out: % Cytotoxicity (50 µM) T. Cruzi Epimastigote Form, 50 µM, 72 h
Description: T. cruzi epimastigotes (strain DM28) were grown at 28 °C in LIT medium supplemented with 10% (v/v) Fetal Bovine Serum (FBS; GIBCO®), 7.5 mM hemin and antibiotics (penicillin 10 U/mL– streptomycin 10 µg/mL). […] Thereafter, 200 µL from each well were transferred to individual cytometer tubes.
EC50 values were obtained from the corresponding concentration/response plots fitted to a sigmoidal Hill equation or extrapolated from nonlinear fitting equations. The errors were calculated using error propagations and are expressed as S.D. estimated as σ^(n−1).

[12] = test system: Bloodstream T. b. brucei expressing the redox biosensor hGrxroGFP2; assay: Redox reporter assay (hGrx1-roGFP2 biosensor, flow cytometry); type: cell-based, Trypanosoma brucei brucei
Description: Bloodstream T. b. brucei expressing the redox biosensor hGrxroGFP2 was grown as described elsewhere. […] Next, 50 µL from each well were transferred to a 96-well plate, containing 100 µL of sterile PBS with glucose 1% (w/v). […] GFP fluorescence (filter λem = 530/40 nm) was only analyzed for viable cells (PI negative). The data were processed and analyzed with the C6Accuri software. Samples were analyzed in triplicate and the error is expressed as S.D.

[13] = test system: mammalian L6 cell line from rat skeletal myoblasts; set-up: method as in PMID 28684718; conditions: printed in the macrophage column; read-out: CC50 against mammalian L6 cell line; cited from earlier work
[14] = test system: G6PDH in T. cruzi strain CL Brenner epimastigotes; conditions: 24 h
[15] = recombinant human G6PDH, 250 µM NADP+, 1 mM G6P, RT, read-out: IC50 H. sapiens G6PDH

In the case of `C[C@]12CC[C@H](O)CC1=CC[C@@H]1[C@@H]2CC[C@]2(C)C(=O)CC[C@@H]12` [DHEA, dehydroepiandrosterone], the EC50 ([1]; footnote c) is given as 43.8 ± 2 µM, the IC50 ([2]; TcG6PDH) is given as 21.5 ± 0.5 µM and the “inhibition of L. mexicana G6PDH” value [3] is given as “refractory”. For the same compound, the IC50 [4] was roughly 10 µM and the CC50 [5] was 25 ± 13 µM.
For `CC(=O)O[C@H]1CC[C@@]2(C)[C@@H](CC[C@@H]3[C@@H]2CC[C@]2(C)C(=O)[C@@H](Br)C[C@@H]32)C1` [Compound 3], the CC50 [6] was 1 ± 0.1 µM, the CC50 at 24 h [7] was 0.96 µM and the IC50 [8] was greater than 100 µM. The “inhibition of human G6PDH at highest concentration” value (shortened to “inhibition of human G6PDH”) [8] was “inactive”, the IC50 [9] was 1.5 ± 0.2 µM and the EC50 ([10]; Trypanosoma brucei, 24 h) was 4.8 ± 0.5 µM. The “% Cytotoxicity (50 µM) T. Cruzi Epimastigote Form” value (“% Cytotoxicity” for short) [11] was 73.9 ± 3.4% and the cytotoxicity at 50 µM ([11]; Trypanosoma cruzi) was 74%.
For `CC1CS(=O)(=O)CCN1/N=C/c1ccc([N+](=O)[O-])o1` (stereo not shown) [Nifurtimox, reference compound], the CC50 at 24 h [7] was 140 ± 2 µM, the “Selectivity Index (CC50 for murine macrophages/EC50 for T. brucei)” value [10] was 23.3 and the EC50 ([10]; Trypanosoma brucei, 24 h) was 6 ± 0.4 µM. For the same compound, the cytotoxicity at 24 µM ([11]; Trypanosoma cruzi, read-out: % Cytotoxicity T. Cruzi Epimastigote Form, at 24 µM, 72 h) was 46 ± 1.9%.
In the case of `C[C@]12CC[C@H](O)CC1=CC[C@@H]1[C@@H]2CC[C@]2(C)C(=O)[C@H](Br)C[C@@H]12` [Compound 4], the CC50 at 24 h [7] is reported as 19 ± 3 µM, the IC50 [8, 15] is reported as 48 ± 2.6 µM and the EC50 ([10]; Trypanosoma brucei, 24 h) is reported as 7.5 ± 0.3 µM. The cytotoxicity at 50 µM ([11]; Trypanosoma cruzi) was 6.4 ± 1.6%.
For `CC(=O)O[C@H]1CC[C@@]2(C)C(=CC[C@@H]3[C@@H]2CC[C@]2(C)C(=O)[C@H](Br)C[C@@H]32)C1` [Compound 5], the CC50 at 24 h [7] was 39 ± 3 µM, the IC50 [8] was greater than 100 µM and the inhibition at 100 µM [8] was 0%. For the same compound, the IC50 [9] was 0.079 ± 0.01 µM, the EC50 ([10]; Trypanosoma brucei, 24 h) was 18 ± 3 µM and the cytotoxicity at 50 µM ([11]; Trypanosoma cruzi) was 30.9 ± 2.5%.
In the case of `CN(C)C(=O)/N=N/C(=O)N(C)C` [diamide], the biosensor oxidation ([12]; 250 µM, 20 min) is reported as 54%.
For `CC(=O)O[C@H]1CC[C@@]2(C)C(=CC[C@@H]3[C@@H]2CC[C@]2(C)C(=O)[C@@H](Br)C[C@@H]32)C1` [Compound 6], the CC50 at 24 h [7] was 4.5 ± 0.4 µM, the IC50 [8] was greater than 100 µM and the “inhibition of human G6PDH” value [8] was “inactive”. For the same compound, the IC50 [9] was greater than 50 µM, the EC50 ([10]; Trypanosoma brucei, 24 h) was 5.3 ± 0.5 µM and the “% Cytotoxicity” value [11] was 76.2 ± 0.8%. It also gave a cytotoxicity at 50 µM ([11]; Trypanosoma cruzi) of 76%.
In the case of `C[C@H]1[C@H]2CC[C@H]3[C@@H]4CC=C5C[C@@H](N(C)C)CC[C@]5(C)[C@H]4CC[C@]23CN1C` [Conessine, reference compound], the EC50 ([1]; footnote e) is listed as 0.42 ± 0.01 µM, the CC50 [13] is listed as 61.2 µM and the “inhibition of human G6PDH” value [8] is listed as “did not inhibit”. The IC50 [8, 15] was greater than 100 µM, the “inhibition of T. cruzi G6PDH at highest concentration” value ([9]; 100 µM) was “did not inhibit” and the IC50 ([9]; recombinant TcG6PDH, 700 µM NADP+, 6 mM G6P, RT, read-out: IC50 T. cruzi G6PDH) was greater than 100 µM. For the same compound, the “Selectivity Index (CC50 for murine macrophages/EC50 for T. brucei)” value [10] was 145.7 and the “induction of oxidative stress in bloodstream trypanosomes” value [12] was “did not induce oxidative stress”.
In the case of `C[C@]12CC[C@H](O)C[C@@H]1CC[C@@H]1[C@@H]2CC[C@]2(C)C(=O)CC[C@@H]12` [EA, Epiandrosterone], the EC50 ([1]; footnote c) is given as 36.5 ± 3.6 µM, the IC50 ([2]; recombinant TcG6PDH) is given as 3 ± 0.4 µM and the “inhibition of L. mexicana G6PDH” value [3] is given as “refractory”. For the same compound, the IC50 [4] was roughly 10 µM, the “G6PDH specific activity in cell extracts” value ([14]; 25 μM EA) was 0.12 U/mg and the “G6PDH specific activity in cell extracts” value ([14]; 100 μM EA) was 0.09 U/mg.
Compound `C[C@]12CC[C@H](O)CC1=CC[C@@H]1[C@@H]2CC[C@]2(C)C(=O)C(O)C[C@@H]12` (stereo partly shown) [Compound 7] has a CC50 at 24 h [7] greater than 24 µM, an EC50 [10] greater than 24 µM and an EC50 ([10]; Trypanosoma brucei, 24 h) of 24 to 44 µM. For the same compound, the IC50 [4] was 15.8 ± 3.3 µM and the cytotoxicity at 50 µM ([11]; Trypanosoma cruzi) was 3.9 ± 0.7%.
In the case of `C[C@]12CC[C@H](O)C[C@@H]1CC[C@@H]1[C@@H]2CC[C@]2(C)C(=O)[C@H](Br)C[C@@H]12` [Compound 1, 16α-bromo-epiandrosterone], the CC50 at 24 h [7] is reported as 8.8 ± 1 µM, the EC50 ([10]; Trypanosoma brucei, 24 h) is reported as 1.9 ± 0.2 µM and the “% Cytotoxicity” value [11] is reported as 14.5 ± 5.3%. For the same compound, the cytotoxicity at 50 µM ([11]; Trypanosoma cruzi) was 15%.
`CC(=O)O[C@H]1CC[C@@]2(C)[C@@H](CC[C@@H]3[C@@H]2CC[C@]2(C)C(=O)[C@H](Br)C[C@@H]32)C1` [Compound 2] gave a CC50 at 24 h [7] of 42 ± 1 µM, an IC50 [8] greater than 100 µM and an inhibition at 100 µM [8] of 0%. For the same compound, the IC50 [9] was 0.11 ± 0.02 µM, the EC50 ([10]; Trypanosoma brucei, 24 h) was 5.3 ± 0.4 µM and the cytotoxicity at 50 µM ([11]; Trypanosoma cruzi) was 64 ± 4.1%.
